Measured values: patent US12516038B2, “Inhibitors of antigen presentation by HLA-DR” (Janssen Pharmaceutica NV, priority 2020, dated 2026)
pIC50: −log10 of the molar value.

Assays:
HLA-DRB1*0401 = HLA-DRB1*0401 (Homo sapiens (Human), UniProt P01903+P01911, A100K/A169T/DEL228-266/F76Y/I96L/K127E/L162R/M171V/N62H/P40V/Q125Y/R42H/S133A/S149N/S66Y/V115G/V209L/W38E); test: HLA-DR4 HTRF assay; type: binding; conditions: inhibition of loading of Alexa Fluor 647-labeled Cit-CII peptide onto HLA-DR4 (CLIP cleaved)
In short: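 HLA-DRB1*04:01 construct (α/β fused to human Fc, CLIP pre-cleaved by HRV3C overnight at 4° C) at 3 nM was preincubated 45 min with compound and 1 nM anti-Fc-Tb donor, then 40 nM Alexa647-Cit-CII1236-1249 peptide added. After 90 min at 37° C, the 665/620 nm HTRF ratio gave % inhibition; IC50 by nonlinear regression.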

[1] = test system: HLA-DR4 restricted mouse T cell hybridoma line (DR4.CII.36.8) with HLA-DRB1*04:01-expressing Boleth cells; test: HLA-DR4-restricted peptide-specific T cell-based assay (hybridoma assay); conditions: Mus musculus, T-cell, 6 h, inhibition of IL-2 production, CII259-273 peptide presented by Boleth cells
In short: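 Boleth cells (HLA-DRB1*04:01 B cell line) pre-incubated with compound 1 h at 37° C. in DMEM/1% FCS, then DR4.CII.36.8 mouse T cell hybridoma (CII259-273-specific) added for 6 h with CII259-273 peptide. Supernatant mouse IL-2 by AlphaLISA; IC50 by 4-PL fit of 8-point duplicate titrations.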

For Cc1c(O[C@@H](c2ccc(C(N)=O)cc2)c2ccnc(CCC(=O)O)c2)ccc2c1OCCC2=O (single isomer, unassigned) [Example 87b], the pIC50 (HLA-DRB1*0401) was 6.29 and the pIC50 [1] was < 4.82.

Cc1cc2c(c(C)c1O[C@@H](c1ccc(F)cc1)c1ccc(C(N)=O)cc1)OCCC2=O (single isomer, unassigned) [Example 90a, (*R)-4-(((6,8-dimethyl-4-oxochroman-7-yl)oxy)(4-fluorophenyl)methyl)benzamide] was tested, and the pIC50 (HLA-DRB1*0401) was 6.28 and the pIC50 [1] was < 4.82.

Work on Cc1cc2c(c(C)c1O[C@H](c1ccc(F)cc1)c1ccc(C(N)=O)cc1)OCCC2=O (single isomer, unassigned) [Example 90b, (*S)-4-(((6,8-dimethyl-4-oxochroman-7-yl)oxy)(4-fluorophenyl)methyl)benzamide] yielded a pIC50 (HLA-DRB1*0401) of 6.23 and a pIC50 [1] of 5.13.

Work on Cc1c(O[C@H](c2ccc(C(N)=O)cc2)c2ccc(F)c(F)c2)c(F)cc2c1OCCC2=O (single isomer, unassigned) [Example 91a, (*R)-4-((3,4-difluorophenyl)((6-fluoro-8-methyl-4-oxochroman-7-yl)oxy)methyl)benzamide] yielded a pIC50 (HLA-DRB1*0401) of 6.26 and a pIC50 [1] of 5.11.

For Cc1c(O[C@@H](c2ccc(C(N)=O)cc2)c2ccc(F)c(F)c2)c(F)cc2c1OCCC2=O (single isomer, unassigned) [Example 91b, (*S)-4-((3,4-difluorophenyl)((6-fluoro-8-methyl-4-oxochroman-7-yl)oxy)methyl)benzamide], the pIC50 (HLA-DRB1*0401) was 6.46 and the pIC50 [1] was < 4.82.

For Cc1c(O[C@@H](c2ccc(C(N)=O)cc2)c2cccc(C#N)c2)c(F)cc2c1OCCC2=O (single isomer, unassigned) [Example 92b, (*S)-4-((3-cyanophenyl)((6-fluoro-8-methyl-4-oxochroman-7-yl)oxy)methyl)benzamide], the pIC50 (HLA-DRB1*0401) was 6.72 and the pIC50 [1] was < 4.82.

Work on Cc1c(O[C@H](c2ccc(C(N)=O)cc2)c2ccc(S(C)(=O)=O)cc2)c(F)cc2c1OCCC2=O (single isomer, unassigned) [Example 93a, (*R)-4-(((6-fluoro-8-methyl-4-oxochroman-7-yl)oxy)(4-(methylsulfonyl)phenyl)methyl)benzamide] yielded a pIC50 (HLA-DRB1*0401) of 6.72 and a pIC50 [1] of 5.22.

Cc1c(O[C@@H](c2ccc(C(N)=O)cc2)c2ccc(S(C)(=O)=O)cc2)c(F)cc2c1OCCC2=O (single isomer, unassigned) [Example 93b, (*S)-4-(((6-fluoro-8-methyl-4-oxochroman-7-yl)oxy)(4-(methylsulfonyl)phenyl)methyl)benzamide] showed a pIC50 (HLA-DRB1*0401) of 6.55 and a pIC50 [1] of 4.85.

Compound Cc1c(O[C@H](c2ccncc2)c2ccc(C(N)=O)c(F)c2)c(F)cc2c1OCCC2=O (single isomer, unassigned) [Example 95a, (*R)-2-fluoro-4-(((6-fluoro-8-methyl-4-oxochroman-7-yl)oxy)(pyridin-4-yl)methyl)benzamide] has a pIC50 (HLA-DRB1*0401) of 6.66 and a pIC50 [1] of 6.64.

Cc1c(O[C@@H](c2ccncc2)c2ccc(C(N)=O)c(F)c2)c(F)cc2c1OCCC2=O (single isomer, unassigned) [Example 95b, (*S)-2-fluoro-4-(((6-fluoro-8-methyl-4-oxochroman-7-yl)oxy)(pyridin-4-yl)methyl)benzamide] was tested, and the pIC50 (HLA-DRB1*0401) was 6.66 and the pIC50 [1] was 5.96.

Cc1c(O[C@H](c2ccncc2)c2cccc(F)c2)c(F)cc2c1OCCC2=O (single isomer, unassigned) [Example 96a, (*R)-6-fluoro-7-((3-fluorophenyl)(pyridin-4-yl)methoxy)-8-methylchroman-4-one] showed a pIC50 (HLA-DRB1*0401) of 6.52 and a pIC50 [1] of 4.96.

For Cc1c(O[C@@H](c2ccncc2)c2cccc(F)c2)c(F)cc2c1OCCC2=O (single isomer, unassigned) [Example 96b, (*S)-6-fluoro-7-((3-fluorophenyl)(pyridin-4-yl)methoxy)-8-methylchroman-4-one], the pIC50 (HLA-DRB1*0401) was 6.33 and the pIC50 [1] was < 4.82.

In the case of COc1ccc([C@H](Oc2c(F)cc3c(c2C)OCCC3=O)c2ccncc2)cc1F (single isomer, unassigned) [Example 97a, (*R)-6-fluoro-7-((3-fluoro-4-methoxyphenyl)(pyridin-4-yl)methoxy)-8-methylchroman-4-one], the pIC50 (HLA-DRB1*0401) was 6.39 and the pIC50 [1] was 5.28.

For COc1ccc([C@@H](Oc2c(F)cc3c(c2C)OCCC3=O)c2ccncc2)cc1F (single isomer, unassigned) [Example 97b, (*S)-6-fluoro-7-((3-fluoro-4-methoxyphenyl)(pyridin-4-yl)methoxy)-8-methylchroman-4-one], the pIC50 (HLA-DRB1*0401) was 6.42 and the pIC50 [1] was < 4.82.

For NC(=O)c1ccc([C@H](Oc2ccc3c(c2)OCCC3=O)c2ccncc2)c2ccccc12 (single isomer, unassigned) [Example 98a, (*R)-4-(((4-oxochroman-7-yl)oxy)(pyridin-4-yl)methyl)-1-naphthamide], the pIC50 (HLA-DRB1*0401) was 5.05 and the pIC50 [1] was 5.23.

With NC(=O)c1ccc([C@@H](Oc2ccc3c(c2)OCCC3=O)c2ccncc2)c2ccccc12 (single isomer, unassigned) [Example 98b, (*S)-4-(((4-oxochroman-7-yl)oxy)(pyridin-4-yl)methyl)-1-naphthamide] the pIC50 (HLA-DRB1*0401) was 5.00 and the pIC50 [1] was < 4.82.

In the case of CCc1cc(O[C@H](c2ccncc2)c2ccc(C(N)=O)cc2)cc2c1C(=O)CCO2 (single isomer, unassigned) [Example 99b, (*S)-4-(((5-ethyl-4-oxochroman-7-yl)oxy)(pyridin-4-yl)methyl)benzamide], the pIC50 (HLA-DRB1*0401) was < 4.05 and the pIC50 [1] was 5.26.

With COc1c(O[C@@H](c2ccncc2)c2ccc(C(N)=O)cc2)ccc2c1OCCC2=O (single isomer, unassigned) [Example 100a, (*R)-4-(((8-methoxy-4-oxochroman-7-yl)oxy)(pyridin-4-yl)methyl)benzamide] the pIC50 (HLA-DRB1*0401) was 5.19 and the pIC50 [1] was 5.12.

Work on COc1c(O[C@H](c2ccncc2)c2ccc(C(N)=O)cc2)ccc2c1OCCC2=O (single isomer, unassigned) [Example 100b, (*S)-4-(((8-methoxy-4-oxochroman-7-yl)oxy)(pyridin-4-yl)methyl)benzamide] yielded a pIC50 (HLA-DRB1*0401) of 5.05 and a pIC50 [1] of 5.64.

For N#Cc1cc(O[C@@H](c2ccncc2)c2ccc(C(N)=O)cc2)cc2c1C(=O)CCO2 (single isomer, unassigned) [Example 101a, (*R)-4-(((5-cyano-4-oxochroman-7-yl)oxy)(pyridin-4-yl)methyl)benzamide], the pIC50 (HLA-DRB1*0401) was 6.02 and the pIC50 [1] was < 4.82.

For N#Cc1cc(O[C@H](c2ccncc2)c2ccc(C(N)=O)cc2)cc2c1C(=O)CCO2 (single isomer, unassigned) [Example 101b, (*S)-4-(((5-cyano-4-oxochroman-7-yl)oxy)(pyridin-4-yl)methyl)benzamide], the pIC50 (HLA-DRB1*0401) was 5.89 and the pIC50 [1] was 4.92.

Work on COc1ccc([C@@H](Oc2c(F)cc3c(c2C)OCCC3=O)c2ccncc2)cc1 (single isomer, unassigned) [Example 103a, (*R)-6-fluoro-7-((4-methoxyphenyl)(pyridin-4-yl)methoxy)-8-methylchroman-4-one] yielded a pIC50 (HLA-DRB1*0401) of 5.54 and a pIC50 [1] of 4.82.

Work on COc1ccc([C@H](Oc2c(F)cc3c(c2C)OCCC3=O)c2ccncc2)cc1 (single isomer, unassigned) [Example 103b, (*S)-6-fluoro-7-((4-methoxyphenyl)(pyridin-4-yl)methoxy)-8-methylchroman-4-one] yielded a pIC50 (HLA-DRB1*0401) of 5.55 and a pIC50 [1] of 4.82.

Cc1c(O[C@@H](c2ccncc2)c2ccc(S(C)(=O)=O)cc2)c(F)cc2c1OCCC2=O (single isomer, unassigned) [Example 104a, (*R)-6-fluoro-8-methyl-7-((4-(methylsulfonyl)phenyl)(pyridin-4-yl)methoxy)chroman-4-one] showed a pIC50 (HLA-DRB1*0401) of 6.54 and a pIC50 [1] of 5.41.

For Cc1c(O[C@H](c2ccncc2)c2ccc(S(C)(=O)=O)cc2)c(F)cc2c1OCCC2=O (single isomer, unassigned) [Example 104b, (*S)-6-fluoro-8-methyl-7-((4-(methylsulfonyl)phenyl)(pyridin-4-yl)methoxy)chroman-4-one], the pIC50 (HLA-DRB1*0401) was 6.64 and the pIC50 [1] was 5.96.

Cc1c(O[C@H](c2ccncc2)c2cccc(S(C)(=O)=O)c2)c(F)cc2c1OCCC2=O (single isomer, unassigned) [Example 105a, (*R)-6-fluoro-8-methyl-7-((3-(methylsulfonyl)phenyl)(pyridin-4-yl)methoxy)chroman-4-one] was tested, and the pIC50 (HLA-DRB1*0401) was 6.70 and the pIC50 [1] was < 4.82.

For Cc1c(O[C@@H](c2ccncc2)c2cccc(S(C)(=O)=O)c2)c(F)cc2c1OCCC2=O (single isomer, unassigned) [Example 105b, (*S)-6-fluoro-8-methyl-7-((3-(methylsulfonyl)phenyl)(pyridin-4-yl)methoxy)chroman-4-one], the pIC50 (HLA-DRB1*0401) was 6.72 and the pIC50 [1] was 5.22.

Cc1cc([C@H](Oc2ccc3c(c2C(C)C)OCCC3=O)c2ccc(C(N)=O)cc2)cc(C)n1 (single isomer, unassigned) [Example 106a, (*R)-4-((2,6-dimethylpyridin-4-yl)((8-isopropyl-4-oxochroman-7-yl)oxy)methyl)benzamide] showed a pIC50 (HLA-DRB1*0401) of 6.33 and a pIC50 [1] of 7.24.

Compound Cc1cc([C@@H](Oc2ccc3c(c2C(C)C)OCCC3=O)c2ccc(C(N)=O)cc2)cc(C)n1 (single isomer, unassigned) [Example 106b, (*S)-4-((2,6-dimethylpyridin-4-yl)((8-isopropyl-4-oxochroman-7-yl)oxy)methyl)benzamide] has a pIC50 (HLA-DRB1*0401) of 6.13 and a pIC50 [1] of 6.43.
